Earlier results as cited in US12533314B2, “Low sodium oxybate once nightly composition” (Tris Pharma, Inc., priority 2023, dated 2026).

Conditions: in vivo

Compound: O=C(O)CCCO [Oxybate, Gamma-hydroxybutyrate]
- plasma half-life: 30 to 45 min
